What all share (experiment): NCI tumour cell line growth inhibition, 48 h
The test system of assay [1] is SF-539.
Assay [2] concerns SK-MEL-5.
The test system of assay [3] is UACC-257.
Assay [4] concerns SNB-19.
Assay [5] concerns SK-MEL-2.
For assay [6], the system named is KM12.
Assay [7] relates to RXF 393.
The subject of assay [8] is SF-268.
For assay [9], the system named is UACC-62.
In assay [10] the test system is IGROV-1.
In assay [11] the test system is HCT-116.
The subject of assay [12] is CAKI-1.
In assay [13] the test system is RPMI-8226.
Assay [14] concerns OVCAR-4.
Assay [15] has as its system EKVX.
Assay [16] concerns SW-620.
Assay [17] relates to NCI-H460.
Assay [18] relates to SK-OV-3.
For assay [19], the system named is OVCAR-3.
Assay [20] has as its system OVCAR-5.

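Values below derive from 48-hour exposures of cells grown in 96-well plates, with endpoints linearly interpolated between the two concentrations bracketing the appropriate inhibition level. Here, GI50 denotes the concentration required for 50% inhibition of growth.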 Calls of active or inactive are those of the source. Rule as the data show it: active = GI50 up to about 1.1 µM and inactive = higher. Some results are limits rather than exact numbers.

As to `CCCCNC(=O)Nc1c(C(N)=O)c2n(c1C(=O)OCC)CCCCC2`, the GI50 in assay [1], in assay [2], in assay [3], in assay [4], in [5] and in [6] was > 100 µM (inactive) each time. For the same compound, the GI50 in assay [7], in assay [8], in assay [9], in assay [10], in assay [11] and in assay [12] was > 100 µM (inactive) each time. Further, the GI50 in assay [13], in assay [14], in [15], in assay [16], in assay [17] and in [18] was > 100 µM (inactive) each time.
Take `CC1C=C(OC(=O)c2ccccc2)C(=O)C(n2cc(F)c(=O)n(C(=O)c3ccccc3)c2=O)O1` (stereo unspecified): the GI50 in assay [1] is 89.5 µM (inactive); in assay [2] it was 73.8 µM (inactive); in assay [3], 70.1 µM (inactive); in assay [4] it was > 100 µM (inactive); in assay [5] it was 45.3 µM (inactive); in assay [7], 33.3 µM (inactive). The GI50 in assay [9] was 35.3 µM (inactive); in assay [10], > 100 µM (inactive); in [19], 22.9 µM (inactive); in assay [11] it was 32.1 µM (inactive); in [12] it was 32.4 µM (inactive); in assay [13], 38.1 µM (inactive). The GI50 in assay [14] was 52.2 µM (inactive); in assay [15] it was > 100 µM (inactive); in assay [16], 34.3 µM (inactive); in assay [17] it was > 100 µM (inactive); in assay [18] it was > 100 µM (inactive).
`COC(=O)C[C@H](COCc1ccccc1)NC(=O)C[C@H](COCc1ccccc1)NC(=O)OC(C)(C)C`: the GI50 in assay [1] was 34.7 µM (inactive); in assay [2], 45.8 µM (inactive); in [4], 21.2 µM (inactive); in assay [5], 37.2 µM (inactive); in [6], 45.3 µM (inactive); in assay [7], 29.6 µM (inactive). For the same compound, the GI50 in assay [8] was 20 µM (inactive); in assay [9], 36.6 µM (inactive); in assay [10], 33.7 µM (inactive); in assay [19] it was 27.7 µM (inactive); in [11], 27.5 µM (inactive); in [20], 33.8 µM (inactive). Also, the GI50 in assay [12] was 29.7 µM (inactive); in assay [13], 39.5 µM (inactive); in [14] it was 18.5 µM (inactive); in assay [15] it was 18.9 µM (inactive); in [16] it was 55.8 µM (inactive); in assay [18], 23.2 µM (inactive).
Take `CC1(C)CCc2cc3c(cc2O1)OCCC3=O`: the GI50 in assay [1], in assay [2], in [3], in assay [4], in assay [6] and in [7] was > 100 µM (inactive) each time. Besides, the GI50 in assay [8], in assay [9], in assay [10], in assay [19], in assay [11] and in assay [20] was > 100 µM (inactive) throughout. Besides, the GI50 in [12] was 92.7 µM (inactive); in assay [13], 96.2 µM (inactive); in [14] it was > 100 µM (inactive); in assay [15] it was > 100 µM (inactive); in assay [16], > 100 µM (inactive); in [17], > 100 µM (inactive). Also, the GI50 in assay [18] was > 100 µM (inactive).
`O=C(c1ccco1)C1CC(c2ccc3ccccc3c2O)=NN1` (stereo unspecified): the GI50 is > 100 µM (inactive) in assay [1]; 89.5 µM (inactive) in [2]; 62.2 µM (inactive) in assay [3]; 71 µM (inactive) in assay [5]; > 100 µM (inactive) in [6]; > 100 µM (inactive) in assay [7]. Moreover, the GI50 in assay [8] was > 100 µM (inactive); in assay [9], > 100 µM (inactive); in assay [10] it was > 100 µM (inactive); in assay [19] it was 57.3 µM (inactive); in assay [11], 57.4 µM (inactive); in [20] it was > 100 µM (inactive). The GI50 in assay [12] was > 100 µM (inactive); in assay [13], 42.9 µM (inactive); in assay [14] it was > 100 µM (inactive); in assay [16], 84.1 µM (inactive); in [17], > 100 µM (inactive); in assay [18] it was > 100 µM (inactive).
Take `CCCCNC(=O)OCC(COc1ccccc1OC)OC(=O)NCCCC` (stereo unspecified): the GI50 in [1] is > 100 µM (inactive); in assay [2] it was 87.5 µM (inactive); in assay [3] it was > 100 µM (inactive); in assay [4], > 100 µM (inactive); in assay [5], > 100 µM (inactive); in assay [6], > 100 µM (inactive). Besides, the GI50 was > 100 µM (inactive) in [7]; > 100 µM (inactive) in assay [8]; 89.9 µM (inactive) in [9]; > 100 µM (inactive) in assay [10]; > 100 µM (inactive) in assay [19]; > 100 µM (inactive) in assay [11]. For the same compound, the GI50 in assay [12] is > 100 µM (inactive); in assay [13], 95.9 µM (inactive); in assay [14], > 100 µM (inactive); in assay [15] it was > 100 µM (inactive); in [16], > 100 µM (inactive); in assay [17] it was > 100 µM (inactive). Moreover, in assay [18], the GI50 is > 100 µM (inactive).
Take `COc1cccc(-c2cc(=O)c3cc(N4CCCCC4)ccc3[nH]2)c1`: the GI50 in assay [1] is < 0.01 µM (active); in [2], < 0.01 µM (active); in assay [3], > 100 µM (inactive); in [4], < 0.0117 µM (active); in assay [5], 0.521 µM (active); in assay [6] it was < 0.01 µM (active). For the same compound, the GI50 in [7] was < 0.01 µM (active); in assay [8] it was 0.16 µM (active); in [9] it was < 0.01 µM (active); in assay [10], 0.0397 µM (active); in assay [19], < 0.01 µM (active); in [11] it was < 0.01 µM (active). Further, the GI50 in [12] is < 0.01 µM (active); in assay [13], < 0.01 µM (active); in [14], 1.51 µM (inactive); in assay [16], < 0.0145 µM (active); in assay [17], < 0.0199 µM (active); in [18], 0.0316 µM (active).
Consider `C[C@]12C[C@@H](OC(=O)[C@]1(C)O)[C@@H]([C@]1(O)CC[C@H]3[C@@H]4C[C@H]5O[C@]56C[C@H]5O[C@H]5C(=O)[C@]6(C)[C@H]4CC[C@@]31C)C2`, for which the GI50 in assay [1], in [2], in assay [3], in assay [4], in assay [5] and in assay [6] was > 50 µM (inactive) throughout. The GI50 in assay [7], in assay [8], in assay [9], in assay [10], in assay [11] and in assay [20] was > 50 µM (inactive) throughout. For the same compound, the GI50 in assay [12] was > 50 µM (inactive); in assay [13], > 50 µM (inactive); in assay [14] it was 27.5 µM (inactive); in [15] it was > 50 µM (inactive); in [16], > 50 µM (inactive); in assay [17] it was > 50 µM (inactive). For the same compound, the GI50 in assay [18] was > 50 µM (inactive).

Source of the values: ChEMBL document CHEMBL1201862, “PubChem BioAssay data set” (2004).
